Results on twelve compounds are retold here after ChEMBL document CHEMBL3991601, “The target landscape of clinical kinase drugs” (Science, 2017).

Activity calls are given as the source filed them. For most assays here, no stated cut-off is given here; in the data, actives have a measured Kd and inactives only a lower limit. Some results are limits rather than exact numbers.

For assay [1], the target named is Tyrosine-protein kinase ABL2 (Homo sapiens, UniProt P42684).
For assay [2], the target named is RAC-gamma serine/threonine-protein kinase (Homo sapiens, UniProt Q9Y243).
RAC-gamma serine/threonine-protein kinase, sequence (Q9Y243 whole entry): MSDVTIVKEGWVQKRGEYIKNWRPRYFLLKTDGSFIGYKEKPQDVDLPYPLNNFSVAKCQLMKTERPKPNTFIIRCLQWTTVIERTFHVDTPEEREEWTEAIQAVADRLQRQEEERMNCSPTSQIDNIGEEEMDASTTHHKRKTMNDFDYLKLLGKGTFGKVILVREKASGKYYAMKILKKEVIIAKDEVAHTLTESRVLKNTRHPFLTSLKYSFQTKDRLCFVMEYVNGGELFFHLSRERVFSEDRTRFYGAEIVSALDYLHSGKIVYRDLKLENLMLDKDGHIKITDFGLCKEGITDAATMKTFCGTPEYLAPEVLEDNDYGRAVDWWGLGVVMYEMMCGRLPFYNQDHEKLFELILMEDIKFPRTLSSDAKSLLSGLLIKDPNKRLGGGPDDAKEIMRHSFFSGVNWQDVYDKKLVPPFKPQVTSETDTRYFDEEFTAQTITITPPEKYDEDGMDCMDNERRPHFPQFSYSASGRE
A further assay addresses T1, Aurora kinase A (Homo sapiens, UniProt O14965).
T1 sequence (O14965 whole entry): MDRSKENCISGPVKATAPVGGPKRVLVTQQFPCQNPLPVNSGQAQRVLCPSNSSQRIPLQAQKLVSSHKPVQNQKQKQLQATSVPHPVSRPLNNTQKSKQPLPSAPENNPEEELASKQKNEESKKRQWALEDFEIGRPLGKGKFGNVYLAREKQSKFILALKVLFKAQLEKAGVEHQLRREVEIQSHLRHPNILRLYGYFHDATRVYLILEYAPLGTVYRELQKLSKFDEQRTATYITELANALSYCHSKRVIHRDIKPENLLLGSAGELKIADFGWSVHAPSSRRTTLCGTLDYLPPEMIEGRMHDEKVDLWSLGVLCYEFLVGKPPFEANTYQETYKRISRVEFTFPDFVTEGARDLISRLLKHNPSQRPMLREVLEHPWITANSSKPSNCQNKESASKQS

Assay [3] has as its target Serine/threonine-protein kinase MRCK beta (Homo sapiens, UniProt Q9Y5S2).
For assay [4], the target named is Cyclin-dependent kinase 5 (Homo sapiens, UniProt Q00535).
Cyclin-dependent kinase 5, sequence (Q00535 whole entry): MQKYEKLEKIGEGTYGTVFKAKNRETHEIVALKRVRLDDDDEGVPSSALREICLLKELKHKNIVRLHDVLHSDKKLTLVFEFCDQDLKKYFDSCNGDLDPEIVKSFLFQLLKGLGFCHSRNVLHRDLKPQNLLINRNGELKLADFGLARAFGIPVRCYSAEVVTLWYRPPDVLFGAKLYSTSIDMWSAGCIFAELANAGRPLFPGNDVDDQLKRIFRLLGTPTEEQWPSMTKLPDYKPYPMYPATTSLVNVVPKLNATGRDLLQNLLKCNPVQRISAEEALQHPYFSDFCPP
Assay [5] deals with Serine/threonine-protein kinase/endoribonuclease IRE2 (Homo sapiens, UniProt Q76MJ5).
Serine/threonine-protein kinase/endoribonuclease IRE2, sequence (Q76MJ5 whole entry): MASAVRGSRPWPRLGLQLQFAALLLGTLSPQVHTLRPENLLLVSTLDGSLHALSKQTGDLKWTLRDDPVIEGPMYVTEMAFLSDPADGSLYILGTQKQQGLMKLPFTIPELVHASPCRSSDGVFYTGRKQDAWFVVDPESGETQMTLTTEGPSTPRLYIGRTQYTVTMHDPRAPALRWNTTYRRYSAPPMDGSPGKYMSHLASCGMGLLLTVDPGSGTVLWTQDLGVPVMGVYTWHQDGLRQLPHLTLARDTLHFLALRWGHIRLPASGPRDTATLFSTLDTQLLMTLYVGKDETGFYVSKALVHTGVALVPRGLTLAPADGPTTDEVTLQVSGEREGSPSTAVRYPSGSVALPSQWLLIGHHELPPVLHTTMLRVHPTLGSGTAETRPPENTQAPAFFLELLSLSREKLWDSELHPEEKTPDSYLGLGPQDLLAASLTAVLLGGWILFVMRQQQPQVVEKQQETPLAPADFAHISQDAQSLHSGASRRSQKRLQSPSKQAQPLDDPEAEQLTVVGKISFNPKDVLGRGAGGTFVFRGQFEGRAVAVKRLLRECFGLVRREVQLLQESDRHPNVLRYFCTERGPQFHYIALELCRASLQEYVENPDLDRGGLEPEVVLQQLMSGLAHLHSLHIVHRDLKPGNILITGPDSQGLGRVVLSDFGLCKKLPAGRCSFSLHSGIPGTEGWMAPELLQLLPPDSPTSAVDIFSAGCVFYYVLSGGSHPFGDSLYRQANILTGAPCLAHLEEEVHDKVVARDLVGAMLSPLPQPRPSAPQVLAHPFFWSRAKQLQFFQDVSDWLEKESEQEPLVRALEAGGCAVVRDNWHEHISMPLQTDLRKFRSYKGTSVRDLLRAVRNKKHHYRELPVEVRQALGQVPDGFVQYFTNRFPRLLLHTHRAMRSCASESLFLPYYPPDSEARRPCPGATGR
Assay [6] deals with T2, Receptor-type tyrosine-protein kinase FLT3 (Homo sapiens, UniProt P36888).
T2 sequence (P36888 whole entry): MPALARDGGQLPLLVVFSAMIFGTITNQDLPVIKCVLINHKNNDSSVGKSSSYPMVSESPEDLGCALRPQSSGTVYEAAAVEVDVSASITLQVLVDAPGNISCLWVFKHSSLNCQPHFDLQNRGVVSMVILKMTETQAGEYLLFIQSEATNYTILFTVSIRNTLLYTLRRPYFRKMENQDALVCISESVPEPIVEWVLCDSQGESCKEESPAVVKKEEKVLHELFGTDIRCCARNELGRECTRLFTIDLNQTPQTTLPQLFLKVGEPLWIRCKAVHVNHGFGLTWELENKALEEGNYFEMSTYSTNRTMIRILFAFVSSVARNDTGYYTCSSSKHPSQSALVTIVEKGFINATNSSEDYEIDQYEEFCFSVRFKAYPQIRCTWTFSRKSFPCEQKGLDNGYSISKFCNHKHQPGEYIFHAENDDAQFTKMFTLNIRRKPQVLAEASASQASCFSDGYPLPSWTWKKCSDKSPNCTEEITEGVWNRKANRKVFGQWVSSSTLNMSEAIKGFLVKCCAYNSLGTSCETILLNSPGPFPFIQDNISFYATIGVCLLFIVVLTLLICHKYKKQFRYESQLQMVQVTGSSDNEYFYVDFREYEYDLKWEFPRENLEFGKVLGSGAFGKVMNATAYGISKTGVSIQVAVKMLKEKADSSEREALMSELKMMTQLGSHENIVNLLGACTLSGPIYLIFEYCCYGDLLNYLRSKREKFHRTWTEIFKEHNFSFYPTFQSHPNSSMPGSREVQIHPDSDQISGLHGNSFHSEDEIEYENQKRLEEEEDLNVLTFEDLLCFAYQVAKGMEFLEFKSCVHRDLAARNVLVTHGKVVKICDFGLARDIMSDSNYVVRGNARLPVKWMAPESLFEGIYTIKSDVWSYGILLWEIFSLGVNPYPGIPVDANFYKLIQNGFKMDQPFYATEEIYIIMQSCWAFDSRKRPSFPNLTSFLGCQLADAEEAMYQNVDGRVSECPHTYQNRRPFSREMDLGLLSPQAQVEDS

In assay [7] the target is NADH dehydrogenase [ubiquinone] 1 alpha subcomplex subunit 13 (Homo sapiens, UniProt Q9P0J0).
NADH dehydrogenase [ubiquinone] 1 alpha subcomplex subunit 13, sequence (Q9P0J0 whole entry, one chain of several): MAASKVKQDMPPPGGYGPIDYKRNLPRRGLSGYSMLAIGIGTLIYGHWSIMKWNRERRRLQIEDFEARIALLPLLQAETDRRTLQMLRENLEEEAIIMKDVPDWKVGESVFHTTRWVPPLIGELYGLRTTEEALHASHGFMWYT
In assay [8] the target is T3, Serine/threonine-protein kinase TAO3 (Homo sapiens, UniProt Q9H2K8).
T3 sequence (Q9H2K8 whole entry): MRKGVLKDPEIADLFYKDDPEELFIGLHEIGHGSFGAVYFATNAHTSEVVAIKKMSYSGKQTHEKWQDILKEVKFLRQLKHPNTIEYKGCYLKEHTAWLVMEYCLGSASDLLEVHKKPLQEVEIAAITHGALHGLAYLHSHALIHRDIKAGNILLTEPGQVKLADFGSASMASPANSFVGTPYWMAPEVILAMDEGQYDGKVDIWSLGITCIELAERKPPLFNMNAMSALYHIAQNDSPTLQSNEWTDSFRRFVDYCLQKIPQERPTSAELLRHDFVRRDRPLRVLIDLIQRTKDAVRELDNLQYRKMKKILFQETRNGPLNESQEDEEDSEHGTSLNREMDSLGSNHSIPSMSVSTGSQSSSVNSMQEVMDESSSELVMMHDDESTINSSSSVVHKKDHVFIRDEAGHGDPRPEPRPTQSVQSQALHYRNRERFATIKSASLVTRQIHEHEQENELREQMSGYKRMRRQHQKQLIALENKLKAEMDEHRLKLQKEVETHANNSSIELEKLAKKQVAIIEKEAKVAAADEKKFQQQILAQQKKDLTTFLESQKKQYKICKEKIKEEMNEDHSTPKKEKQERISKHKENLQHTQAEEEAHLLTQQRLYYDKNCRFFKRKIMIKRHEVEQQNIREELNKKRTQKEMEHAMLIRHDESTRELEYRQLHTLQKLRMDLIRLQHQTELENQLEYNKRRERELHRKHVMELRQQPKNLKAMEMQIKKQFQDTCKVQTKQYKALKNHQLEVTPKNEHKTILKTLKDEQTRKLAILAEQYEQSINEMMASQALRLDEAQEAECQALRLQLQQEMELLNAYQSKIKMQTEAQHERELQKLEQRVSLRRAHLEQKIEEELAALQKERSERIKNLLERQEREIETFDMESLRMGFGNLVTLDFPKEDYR

Tyrosine-protein kinase ABL2, sequence (P42684 whole entry): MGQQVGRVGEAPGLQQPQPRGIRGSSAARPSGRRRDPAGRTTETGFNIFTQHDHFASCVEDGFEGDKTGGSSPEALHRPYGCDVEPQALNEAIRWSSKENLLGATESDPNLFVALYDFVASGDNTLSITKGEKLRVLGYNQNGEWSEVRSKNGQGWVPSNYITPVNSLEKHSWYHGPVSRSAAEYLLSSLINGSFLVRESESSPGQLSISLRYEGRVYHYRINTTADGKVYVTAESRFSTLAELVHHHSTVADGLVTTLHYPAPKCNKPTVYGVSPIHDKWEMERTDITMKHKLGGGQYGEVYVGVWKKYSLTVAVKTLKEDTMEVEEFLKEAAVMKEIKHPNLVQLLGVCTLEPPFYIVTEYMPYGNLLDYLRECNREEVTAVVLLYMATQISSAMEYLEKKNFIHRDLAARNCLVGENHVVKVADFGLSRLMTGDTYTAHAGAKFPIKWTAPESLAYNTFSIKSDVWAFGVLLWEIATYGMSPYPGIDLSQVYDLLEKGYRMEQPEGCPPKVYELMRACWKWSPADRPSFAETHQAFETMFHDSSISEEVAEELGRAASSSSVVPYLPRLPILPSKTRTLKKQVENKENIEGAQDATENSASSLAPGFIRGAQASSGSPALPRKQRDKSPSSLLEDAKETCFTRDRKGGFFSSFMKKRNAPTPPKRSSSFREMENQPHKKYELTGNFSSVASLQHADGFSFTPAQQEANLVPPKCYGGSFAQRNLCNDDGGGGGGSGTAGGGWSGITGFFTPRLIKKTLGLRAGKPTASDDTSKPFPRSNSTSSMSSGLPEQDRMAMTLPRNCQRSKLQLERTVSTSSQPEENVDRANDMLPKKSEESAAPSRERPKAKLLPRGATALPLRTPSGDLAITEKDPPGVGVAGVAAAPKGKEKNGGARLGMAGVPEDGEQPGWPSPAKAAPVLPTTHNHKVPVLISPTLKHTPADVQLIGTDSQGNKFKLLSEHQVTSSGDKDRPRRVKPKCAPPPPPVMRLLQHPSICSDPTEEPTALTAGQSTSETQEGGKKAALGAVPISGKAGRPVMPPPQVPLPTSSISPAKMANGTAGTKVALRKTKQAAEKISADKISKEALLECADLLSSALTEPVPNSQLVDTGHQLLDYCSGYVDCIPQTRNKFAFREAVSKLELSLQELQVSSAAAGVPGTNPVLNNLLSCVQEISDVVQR
Serine/threonine-protein kinase MRCK beta, sequence (Q9Y5S2 whole entry): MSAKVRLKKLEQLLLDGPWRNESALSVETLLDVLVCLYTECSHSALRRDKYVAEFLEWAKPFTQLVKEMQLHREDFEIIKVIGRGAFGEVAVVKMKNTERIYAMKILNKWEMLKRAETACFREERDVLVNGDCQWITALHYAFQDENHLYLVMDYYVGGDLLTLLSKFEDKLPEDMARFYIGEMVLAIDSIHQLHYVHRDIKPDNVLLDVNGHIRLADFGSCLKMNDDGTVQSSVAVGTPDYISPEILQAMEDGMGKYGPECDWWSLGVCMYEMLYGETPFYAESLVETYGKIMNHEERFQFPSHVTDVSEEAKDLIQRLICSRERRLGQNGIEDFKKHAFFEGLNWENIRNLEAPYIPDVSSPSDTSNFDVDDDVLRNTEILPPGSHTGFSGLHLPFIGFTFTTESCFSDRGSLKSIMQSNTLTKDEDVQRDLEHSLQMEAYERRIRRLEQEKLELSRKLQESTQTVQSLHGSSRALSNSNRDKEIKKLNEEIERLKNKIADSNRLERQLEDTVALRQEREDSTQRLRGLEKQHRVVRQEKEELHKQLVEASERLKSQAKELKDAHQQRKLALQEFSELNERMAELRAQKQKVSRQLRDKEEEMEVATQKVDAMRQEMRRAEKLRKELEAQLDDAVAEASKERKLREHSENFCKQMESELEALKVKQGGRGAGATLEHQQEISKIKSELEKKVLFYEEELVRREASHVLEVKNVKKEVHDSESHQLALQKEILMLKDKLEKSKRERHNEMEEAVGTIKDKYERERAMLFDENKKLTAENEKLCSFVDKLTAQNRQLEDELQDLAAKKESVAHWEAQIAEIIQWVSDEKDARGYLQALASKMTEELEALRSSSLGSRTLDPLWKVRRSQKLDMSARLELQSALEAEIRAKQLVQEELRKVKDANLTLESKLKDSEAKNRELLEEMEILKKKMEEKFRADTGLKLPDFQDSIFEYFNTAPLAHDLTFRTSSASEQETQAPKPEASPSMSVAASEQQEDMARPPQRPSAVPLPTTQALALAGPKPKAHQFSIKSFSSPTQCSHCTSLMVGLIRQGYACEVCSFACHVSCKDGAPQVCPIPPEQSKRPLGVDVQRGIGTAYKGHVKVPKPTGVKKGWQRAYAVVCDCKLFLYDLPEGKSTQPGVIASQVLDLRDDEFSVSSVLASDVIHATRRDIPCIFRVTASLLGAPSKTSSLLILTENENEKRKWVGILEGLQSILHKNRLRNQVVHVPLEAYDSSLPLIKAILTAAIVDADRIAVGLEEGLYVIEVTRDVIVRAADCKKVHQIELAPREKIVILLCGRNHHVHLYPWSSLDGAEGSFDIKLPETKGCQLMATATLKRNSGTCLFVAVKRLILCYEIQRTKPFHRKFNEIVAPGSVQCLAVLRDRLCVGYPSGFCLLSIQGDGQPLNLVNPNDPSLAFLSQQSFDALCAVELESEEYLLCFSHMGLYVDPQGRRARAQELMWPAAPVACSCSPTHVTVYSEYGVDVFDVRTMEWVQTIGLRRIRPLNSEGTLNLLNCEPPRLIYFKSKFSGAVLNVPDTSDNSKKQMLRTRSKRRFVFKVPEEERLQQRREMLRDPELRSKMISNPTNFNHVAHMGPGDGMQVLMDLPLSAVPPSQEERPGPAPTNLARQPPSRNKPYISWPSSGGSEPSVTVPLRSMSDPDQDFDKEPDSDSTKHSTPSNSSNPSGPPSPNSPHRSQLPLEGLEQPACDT

In the case of `CCn1c(=O)c(-c2cc[nH]n2)cc2c(C)nc(N)nc21` [VOXTALISIB], the Kd (in assay [1]; in assay [2]; on Aurora kinase A; in assay [3]; in [4]; in assay [5]) was > 30 µM (inactive) each time. Besides, the Kd in assay [6], in assay [7] and in [8] was > 30 µM (inactive) in each case.
On to `Cc1cc2c(F)c(Oc3ncnn4cc(OC[C@@H](C)OC(=O)[C@H](C)N)c(C)c34)ccc2[nH]1` [BRIVANIB ALANINATE], for which the Kd (in [1]; in [2]; at Aurora kinase A; in [3]; in assay [4]; in assay [5]) was > 30 µM (inactive) each time. The Kd in assay [6], in [7] and in assay [8] was > 30 µM (inactive) in each case.
Take `CN1CCC(CNc2ccc3ncc(-c4cccc(OC(F)(F)F)c4)n3n2)CC1` [SGI-1776]: the Kd (in assay [1]; in [2]; on Aurora kinase A; in [3]; in assay [4]; in assay [5]) was > 30 µM (inactive) each time. Also, the Kd (as a rule, the equilibrium constant for the complex coming apart) in [6] is 0.143 µM (active); in assay [7] it was > 30 µM (inactive); in [8] it was > 30 µM (inactive).
In the case of `CC[C@H](Nc1ncnc2[nH]cnc12)c1nc2cccc(F)c2c(=O)n1-c1ccccc1` [IDELALISIB], the Kd (in [1]; in assay [2]; at Aurora kinase A; in assay [3]; in assay [4]; in assay [5]) was > 30 µM (inactive) in each case. In addition, the Kd in [6], in assay [7] and in assay [8] was > 30 µM (inactive) in each case.
As for `COC(=O)N[C@@H](C)CNc1nccc(-c2cn(C(C)C)nc2-c2cc(Cl)cc(NS(C)(=O)=O)c2F)n1` [ENCORAFENIB], the Kd (in [1]; in assay [2]; at Aurora kinase A; in [3]; in [4]; in assay [5]) was > 30 µM (inactive) each time. The results for the Kd in assay [6], in assay [7] and in assay [8] were > 30 µM (inactive), > 30 µM (inactive) and 3.32 µM (active), respectively.
For `O=c1sn(-c2cccc3ccccc23)c(=O)n1Cc1ccccc1` [TIDEGLUSIB], the Kd (in [1]; in assay [2]; on Aurora kinase A; in assay [3]; in assay [4]; in [5]) was > 30 µM (inactive) in each case. Besides, the Kd in assay [6], in assay [7] and in [8] was > 30 µM (inactive) each time.
With `COC(=O)[C@@]1(O)C[C@H]2O[C@]1(C)n1c3ccccc3c3c4c(c5c6ccccc6n2c5c31)C(=O)NC4` [K-252A], the Kd is > 30 µM (inactive) in assay [1]; > 30 µM (inactive) in assay [2]; 0.02 µM (active) at Aurora kinase A; > 30 µM (inactive) in assay [3]; 0.911 µM (active) in assay [4]; 0.908 µM (active) in assay [5]. In addition, the Kd is 0.227 µM (active) in assay [6], > 30 µM (inactive) in assay [7] and > 30 µM (inactive) in assay [8].
As for `O=C(c1ccc(F)c(F)c1Nc1ccc(I)cc1F)N1CC(O)([C@@H]2CCCCN2)C1` [COBIMETINIB], the Kd (in [1]; in assay [2]; on Aurora kinase A; in assay [3]; in assay [4]; in assay [5]) was > 30 µM (inactive) each time. Besides, the Kd in assay [6], in assay [7] and in [8] was > 30 µM (inactive) each time.
`Cc1ccc(S(=O)(=O)Nc2nc3ccccc3nc2Nc2ccc3nsnc3c2)cc1`: the Kd (in [1]; in assay [2]; on Aurora kinase A; in assay [3]; in assay [4]; in assay [5]) was > 30 µM (inactive) each time. The Kd in assay [6], in [7] and in [8] was > 30 µM (inactive) throughout.
For `Cn1cc(-c2ccc(F)c(C(F)(F)F)c2)nc1C1CCN(c2ncnc3[nH]ncc23)CC1` [LY-2584702], the Kd (in [1]; in assay [2]; on Aurora kinase A; in assay [3]; in assay [4]; in assay [5]) was > 30 µM (inactive) throughout. For the same compound, the Kd in [6], in [7] and in assay [8] was > 30 µM (inactive) throughout.
Regarding `CN(C)C(=O)c1cc2cnc(Nc3ccc(N4CCNCC4)cn3)nc2n1C1CCCC1` [RIBOCICLIB], the Kd (in [1]; in assay [2]; at Aurora kinase A; in assay [3]; in assay [4]; in [5]) was > 30 µM (inactive) throughout. For the same compound, the Kd in assay [6], in assay [7] and in [8] was > 30 µM (inactive) throughout.
As to `O=C(Nc1ccc(-c2ccnc(Nc3ccc(N4CCOCC4)cc3)n2)cc1)C1CCCN1` (stereo not drawn) [XL-019], the Kd (in assay [1]; in assay [2]; at Aurora kinase A; in [3]; in [4]; in [5]) was > 30 µM (inactive) in each case. Moreover, the Kd was 12.5 µM (active) in assay [6], > 30 µM (inactive) in assay [7] and > 30 µM (inactive) in assay [8].
